“Also recorded” adds a separate entry of the source. Non-standard residues stand in square brackets, D forms with d. Primed or numbered codes have the meaning given here. No end group written: not given here. *: point of attachment. FITC = O=C1OC2(c3ccc(O)cc3Oc3cc(O)ccc32)c2ccc(NC(=S)*)cc21; Aha′ = not defined here
How the values were obtained:
Assay type in all cases: biochemical
ppGalNAcT2 = ppGalNAcT2 (Homo sapiens, UniProt Q10471); assay: Protease protection assay for ppGalNAcT2
Experimental: (§1) There are multiple isoforms of the enzyme polypeptide N-acetylgalactosaminyltranferases (ppGalNAcTs). Activity of ppGalNAcTs are illustrated in FIG. 14. Using assay methods as described above, peptide substrates for ppGalNAcTs were prepared and used to assay to identify modulators of ppGalNAcTs activity. Peptide substrates EPGPTEAPK (SEQ ID NO:25) and EDAVTPGPK (SEQ ID NO:26) were prepared (see FIG. 15) and utilized to assay for modulators of the enzymes. Each peptide substrate include a proteinase K cleavage site. The identified compound SEQ ID NO:25 is a general substrate for ppGalNAcTs and identified compound SEQ ID NO:26 is a selective substrate for the enzyme ppGalNAcT1. Assays were run and alterations in the rate and/or amount of cleavage by proteinase K was determined. […] The difference in cleavage permitted use of the assay to identify compounds that inhibit glycosylation of the substrate by ppGalNAcTs. Additional inhibitory compounds identified using the assay include Compound 24 and Compound 27 (see Table 1).
(§2) It was determined that the assay could also be used to identify isoform selective inhibitors. […] The presence of the inhibitor disrupted crystal growth of the ppGalNAcT2.

ppGalNAcT1 = molecular target: T1, ppGalNAcT1 (Homo sapiens, UniProt Q10472); assay: Protease protection assay for ppGalNAcT1
T1 sequence (Q10472 1-559): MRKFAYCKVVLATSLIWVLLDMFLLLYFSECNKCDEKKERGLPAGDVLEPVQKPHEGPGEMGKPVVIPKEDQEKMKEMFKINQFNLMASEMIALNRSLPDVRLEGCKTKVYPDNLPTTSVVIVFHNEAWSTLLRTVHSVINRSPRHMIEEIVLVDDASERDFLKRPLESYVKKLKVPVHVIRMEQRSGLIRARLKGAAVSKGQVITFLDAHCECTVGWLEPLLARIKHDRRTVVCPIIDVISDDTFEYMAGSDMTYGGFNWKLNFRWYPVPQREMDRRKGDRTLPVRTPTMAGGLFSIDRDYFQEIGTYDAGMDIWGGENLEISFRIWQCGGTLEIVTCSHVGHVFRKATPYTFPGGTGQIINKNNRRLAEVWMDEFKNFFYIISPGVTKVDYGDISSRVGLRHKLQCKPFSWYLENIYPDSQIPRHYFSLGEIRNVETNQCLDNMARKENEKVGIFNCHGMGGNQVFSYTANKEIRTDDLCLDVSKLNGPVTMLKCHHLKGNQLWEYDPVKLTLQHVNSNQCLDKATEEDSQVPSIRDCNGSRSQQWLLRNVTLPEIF
Experimental: as §1, §2

ppGalNAcTs = assay: Protease protection assay for ppGalNAcTs (general)
Experimental: as §1

[1] = molecular target: T2, O-Linked N-acetylglucosaminyltransferase (OGT) (Homo sapiens, UniProt O15294); assay: Glycosylation of CK2-derived polypeptide substrates by OGT, quantified by LC/MS
T2 sequence (O15294 1-1046): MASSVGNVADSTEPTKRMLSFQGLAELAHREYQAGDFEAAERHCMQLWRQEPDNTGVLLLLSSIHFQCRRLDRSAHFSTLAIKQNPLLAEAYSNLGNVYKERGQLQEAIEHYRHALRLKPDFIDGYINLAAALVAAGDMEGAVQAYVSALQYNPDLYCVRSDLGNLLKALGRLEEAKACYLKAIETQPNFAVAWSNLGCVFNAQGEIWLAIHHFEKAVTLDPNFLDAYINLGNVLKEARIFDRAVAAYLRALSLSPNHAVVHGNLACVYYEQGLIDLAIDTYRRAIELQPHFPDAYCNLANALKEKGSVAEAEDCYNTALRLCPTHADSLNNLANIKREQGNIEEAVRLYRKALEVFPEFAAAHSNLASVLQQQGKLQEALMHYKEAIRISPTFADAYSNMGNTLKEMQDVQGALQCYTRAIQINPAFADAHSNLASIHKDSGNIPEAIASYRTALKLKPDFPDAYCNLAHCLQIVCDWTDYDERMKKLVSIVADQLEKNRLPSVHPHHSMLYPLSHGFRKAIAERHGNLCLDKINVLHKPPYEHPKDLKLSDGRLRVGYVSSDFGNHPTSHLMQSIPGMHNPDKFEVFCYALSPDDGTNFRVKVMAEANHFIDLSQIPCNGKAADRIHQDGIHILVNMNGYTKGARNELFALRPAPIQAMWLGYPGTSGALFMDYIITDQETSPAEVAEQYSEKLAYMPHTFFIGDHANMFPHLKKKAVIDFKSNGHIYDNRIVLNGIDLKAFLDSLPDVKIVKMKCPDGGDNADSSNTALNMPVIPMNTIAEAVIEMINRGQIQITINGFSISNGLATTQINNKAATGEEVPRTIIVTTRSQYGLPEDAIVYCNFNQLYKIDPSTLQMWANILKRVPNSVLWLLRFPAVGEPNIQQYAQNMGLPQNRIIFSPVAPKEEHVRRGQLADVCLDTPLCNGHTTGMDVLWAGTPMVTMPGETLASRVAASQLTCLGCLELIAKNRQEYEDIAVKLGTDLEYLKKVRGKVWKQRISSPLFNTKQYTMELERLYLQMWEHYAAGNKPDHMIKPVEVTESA
Experimental: To address the first requirement, a panel of polypeptides was synthesized based on a truncated version of the CKII polypeptide [CKII peptide PGGSTPVSSNAMM (SEQ ID NO:20)]. The polypeptide was modified from the native sequence in several ways. First, a fluorescein was installed on the N-terminus during synthesis. Second, a lysine was added to the C-terminus so that a second dye or quencher could be installed by reaction with the appropriate N-hydroxysuccinimidyl ester. These modifications allowed two different FRET approaches. The first approach required the installation of a coumarin derivative on the polypeptide. The second required installation of a quencher molecule, which measured total fluorescence intensity. (See Examples 2 and 3). Finally, the residues on either side of the glycosylated serine of the truncated CK2 polypeptide were changed to phenylalanine, leucine or arginine to introduce proteolytic cleavage sites for common proteases (such as trypsin, chymotrypsin and thermolysin) that were not present in the native sequence. It was reasoned that cleavage adjacent to the glycosylation site would yield the largest difference in the rate of proteolysis between glycosylated and native polypeptides. This series of polypeptides was synthesized and screened for OGT activity using by LC/MS. Peak integration (measured at 445 nm) was used to quantitative products and reactants and mass spectrometry was used to confirm peak identity. The results are presented in Table 2 and some of the peptides (peptide 4.1, 4.4, and 4.5 top to bottom) are illustrated in FIG. 2.
All polypeptides were purchased from Tufts University core facility (Boston, Mass.). The mass of crude product was verified and the polypeptides were labeled under the following conditions: Polypeptide was dissolved in 250 mM NaHCO3 buffer, pH 8.2 at a 5 mM concentration and the appropriate NHS-Ester (0.5 eq) was dissolved in DMSO (a volume of 1/10 of the aqueous buffer was used). The DMSO solution was quickly added to the peptide and the reaction proceeded at room temperature for 30 minutes. This was repeated 2 more times (four more times for polypeptide 4.10). The reaction was monitored by LC/MS. LCMS conditions for polypeptides 4.1-4.8—Agilent Eclipse 5 μm XD8-C8 column, 0→100% CH3CN+0.1% formic acid over 20 minutes. LCMS conditions for polypeptides 4.9-4.10—Agilent Eclipse 5 μm XD8-C8 column, 0→100% CH3CN+0.1% NH4OH over 20 minutes. Each polypeptide was purified by preparative HPLC. Conditions for polypeptides 4.1-4.8 were: —Phenomonex Luna C18 5 μm column, 0→100% CH3CN+0.1% TFA over 40 minutes. Conditions for polypeptides 4.9-4.10 were: —Phenomonex Luna C18 5 μm column, 0→100% CH3CN+0.1% NH4OH over 40 minutes. Products were confirmed by LC/MS. Preparative Glycosylation of Labeled Polypeptides: Purified FRET labeled polypeptides were added (20-50 μM final concentration) to assay buffer (50 mM Tris, 20 mM CaCl2, 0.05% Tween-20, 0.05% NP-40, pH=7.8), 200 μM UDP-GlcNAc, 0.05 units of alkaline phosphatase, and 5 μM OGT. Reactions were monitored using LCMS: conditions for polypeptides 4.1-4.8—Agilent Eclipse 5 μm XD8-C8 column, 10→60% CH3CN+0.1% formic acid over 20 minutes. LCMS conditions for polypeptides 4.9-4.10—Agilent Eclipse 5 μm XD8-C8 column, 10→60% CH3CN+0.1% NH4OH over 20 minutes, and when complete were purified using the same column and conditions. Polypeptides 4.1-4.8 were quantitated by absorption at 492 nm using an extinction coefficient of 86,000 cm^−1M^−1; polypeptide 4.9 was quantitated by absorption at 530 nm using an extinction coefficient of 26,000 cm^−1M^−1; polypeptide 4.10 was quantitated by absorption at 530 nm using an extinction coefficient of 52,000 cm^−1M^−1. Fluorescence Resonance Energy Transfer (FRET)-Peptide Approach #1

ppGalNAcT2, sequence (Q10471 whole entry, canonical isoform): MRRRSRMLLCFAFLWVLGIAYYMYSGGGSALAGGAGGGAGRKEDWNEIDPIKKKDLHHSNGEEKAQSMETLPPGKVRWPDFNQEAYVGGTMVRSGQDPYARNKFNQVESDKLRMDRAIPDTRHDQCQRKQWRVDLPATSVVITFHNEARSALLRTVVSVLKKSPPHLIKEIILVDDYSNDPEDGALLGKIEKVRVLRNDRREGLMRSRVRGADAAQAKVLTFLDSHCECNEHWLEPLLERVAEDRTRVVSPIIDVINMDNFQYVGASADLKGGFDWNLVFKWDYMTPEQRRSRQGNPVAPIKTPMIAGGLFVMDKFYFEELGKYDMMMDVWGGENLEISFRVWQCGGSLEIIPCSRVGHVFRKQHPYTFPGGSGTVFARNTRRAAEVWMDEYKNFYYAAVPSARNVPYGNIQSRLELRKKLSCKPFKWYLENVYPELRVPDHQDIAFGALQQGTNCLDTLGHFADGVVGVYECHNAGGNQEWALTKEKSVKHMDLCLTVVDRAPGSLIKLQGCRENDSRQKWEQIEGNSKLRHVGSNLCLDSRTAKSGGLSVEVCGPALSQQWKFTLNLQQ

## O=C(O)CCCN1C(=O)C(O)=C(C(=O)/C=C\c2ccccc2)C1c1ccccc1 (centres unmarked) [Compound 24]
ppGalNAcT2
  inhibition of ppGalNAcT2 (% glycosylation, FIG. 18): inhibits
ppGalNAcT1
  inhibition of ppGalNAcT1 (% glycosylation, FIG. 18): inhibits
ppGalNAcTs
  inhibition of ppGalNAcTs: inhibitory; also recorded: inhibitors

## O=C1NC(=O)N(Cc2ccco2)C(=O)/C1=C\c1ccco1 [Compound 25]
ppGalNAcT2; FIG. 18B
  isoform selectivity ppGalNAcT2 vs ppGalNAcT1: more selective inhibitor for ppGalNAcT2 than for ppGalNAcT1; also recorded: more selectively inhibits ppGalNAcT2 than ppGalNAcT1

## O=C1NC(=S)NC(=O)C1=C/C=C\c1ccco1 [Compound 26]
ppGalNAcTs
  inhibition of ppGalNAcTs: inhibitors

## O=C(O)CCCCCn1c(SCC(=O)c2ccc(O)c(O)c2)nc2ccsc2c1=O [Compound 27]
ppGalNAcTs
  inhibition of ppGalNAcTs: inhibitory; also recorded: inhibitors

## FITC(Aha)STPVSSANMK ({FITC}-[Aha′]STPVSSANMK; reading uncertain; also: printed as FITC(Aha)STPVSSANMK) [Polypeptide 4.1]
[1]; FIG. 2, natural (wild-type) sequence set as reference
  relative glycosylation rate: 100%
[1]; OGT, LC/MS peak integration at 445 nm, relative to wt polypeptide 4.1
  Relative rate of glycosylation: 1

Source: patent US8993718B2, “Methods and compositions for detecting and modulating O-glycosylation” (President and Fellows of Harvard College, priority 2007, dated 2015)
